Assay results published in US12514894B2, “Traditional Chinese medicine composition for preventing and treating diabetes, traditional Chinese medicine preparation, and use thereof” (ZHEJIANG CHINESE MEDICAL UNIVERSITY, priority 2022, dated 2026).
Read-outs that look alike come from different tables or passages of the source.

How the values were obtained:
mouse sperm = details: CP 0.04 g/(kg · BW), 5 days gavage, day 35
Experimental: The dose planning and preparation methods of the positive control and samples are shown in the in vivo micronucleus assay in mouse bone marrow. Twenty-five healthy male ICR mice weighing 25.3-29.8 g were randomly divided into three sample dose groups of 2.5, 5.0 and 10.0 mL/(kg·BW), a solvent control group (purified water), and a positive control group [CP 0.04 g/(kg-BW)] by body weight, with five mice in each group. Animals in each group were given gastric gavage once a day for five consecutive days, and the gavage capacity was 20 mL/(kg·BW). At 35 days after the first administration of the test solution, the mice were sacrificed, bilateral epididymides were removed, and the epididymides were cut longitudinally with ophthalmic scissors, filtered, smeared, dried, fixed with methanol, stained with 2% (m:V) eosin, and microscopically observed.

[1] = system: mouse bone marrow polychromatic erythrocytes (PCEs); details: CP 0.04 g/(kg · BW)
Experimental: The test solutions of each dose group were prepared by diluting 2.5, 5.0, and 10.0 mL of TCM decoction to 20 mL with purified water, respectively (each equivalent to 25, 50, and 100 times the recommended daily intake of an adult). For a positive control, 0.04 g of cyclophosphamide (CP) was diluted with purified water to 20 mL for later use. Fifty ICR mice weighing 25.1-30.0 g were randomly divided into three sample dose groups of 2.5, 5.0 and 10.0 mL/(kg·BW), a solvent control group (purified water) and a positive control group [CP 0.04 g/(kg·BW)] by gender and body weight, with 10 mice in each group, half male and half female. The gavage capacity was 20 mL/(kg·BW) each time, and the femoral bone marrow was suspended in calf serum for direct smear, methanol fixation, and Giemsa staining 6 h after the second gastric gavage. […] The number of normochromatic erythrocytes (NCEs) observed was counted while 200 PCEs per animal was observed. The ratio of both (PCE/NCE) was calculated. The results are as follows (see Table 1).

[2] = system: Salmonella typhimurium TA97a; experiment: Ames test, strain TA97a; format: cell-based; details: Test 2
Experimental: (§1) The TCM decoction (20 mL) was sterilized at 121° C. for 20 min as a test solution. During the test, 0.1 mL of the test solution was added to each dish in the highest dose group, namely 5 μL/dish, and there was no contamination or inhibition during the pre-test. In the formal test, the test solution in the highest dose group was serially diluted 5 times with sterile purified water successively, and prepared into four test solutions with doses of 1, 0.2, 0.04, and 0.008 μL/dish, and five sample dose groups were formed. In addition, a solvent control group (sterile purified water), a blank control group (spontaneous reverse mutation group) and four positive control groups were set up. The solvents and dosages required for the preparation of positive controls sodium azide, Dexon, 2-aminofluorene and 1,8-dihydroxyanthraquinone are shown in Table 1. Sequentially, 0.1 mL each of the fresh enrichment broth of tester strain and the test solution were added into a top-layer culture medium held in a 45° C. water bath, 0.5 mL of 10% (V:V) S9 mixture was added when activated, and an equal volume of 0.2 mol/L pH7.4 phosphate buffer saline (PBS) was added without activation; after mixing well, the mixture was rapidly poured onto the bottom-layer culture medium, and the plate was rotated to uniformly distribute the top-layer culture medium on the bottom layer. […]

[3] = system: Salmonella typhimurium TA98; experiment: Ames test, strain TA98; format: cell-based; details: Test 2
Experimental: as §1

[4] = system: Salmonella typhimurium TA100; experiment: Ames test, strain TA100; format: cell-based; details: Test 2
Experimental: as §1

[5] = system: SD rats with diabetes of dampness-heat pattern; experiment: Lowering of blood glucose in rats with type 2 diabetes; format: in vivo, rat
Excerpt: Dose Planning: Low-, medium- and high-dose groups were designed in this experiment: 10 g (crude drug)/kg, 20 g (crude drug)/kg, and 40 g (crude drug)/kg. The dose groups were given by gastric gavage for 30 consecutive days, and the control group was given an equal quantity of normal saline.
SD rats with diabetes of dampness-heat pattern were modeled with reference to the 2014 edition of the Ideas and Methods of Clinical-mimetic Research on Integrated Animal Models of Disease and Syndrome. The specific method was as follows: Sixty specific pathogen-free (SPF) grade male Sprague-Dawley (SD) rats weighing 160-180 g were selected, 10 male SD rats were assigned to a normal control group, and the rest 50 ones were fasted but not deprived of water for 16-18 h (21:00 PM to 14:00 PM the next day); STZ was prepared into a 1.0% solution with […] citric acid buffer (pH=4.2, 4° C.), and the rats were fed with high-sugar and high-fat diet on Day 3 after tail vein injection of 10 mg kg^−1 STZ; the type 2 diabetes model was replicated by continuous high-sugar and high-fat feeding for 6-8 weeks (impaired glucose tolerance was deemed as successful modeling), and the normal control group was fed with normal diet. Later, after all rats were fed with normal animal feed and normally drank water for one week, they fasted but not deprived of water for 12 h; the tails of the rats were disinfected with alcohol, and the fasting plasma glucose of the rats was measured by tail vein blood sampling. […] After the successful modeling, the rats were given normal animal feed and access to water ad libitum for one week, so as to detect the stability of the model.
After the successful modeling, 50 rats were divided into a model control group, a positive control group, a low-dose TCM decoction group, a medium-dose TCM decoction group, and a high-dose TCM decoction group. Ten rats in the blank control group were given access to ordinary animal feed and water ad libitum, and an equal volume of normal saline was administered daily by gastric gavage. Ten rats in the model control group were given access to ordinary animal feed and water ad libitum, and an equal volume of normal saline was administered daily by gastric gavage. Ten rats in the positive control group were given access to ordinary animal feed and water ad libitum, and 0.25 g/kg metformin was administered daily by gastric gavage. Ten rats in the low-dose TCM decoction group were given access to ordinary animal feed and water ad libitum, and 10 g (crude drug)/kg TCM decoction was administered daily by gastric gavage. Ten rats in the medium-dose TCM decoction group were given access to ordinary animal feed and water ad libitum, and 20 g (crude drug)/kg TCM decoction was administered daily by gastric gavage. Ten rats in the high-dose TCM decoction group were given access to ordinary animal feed and water ad libitum, and 40 g (crude drug)/kg TCM decoction was administered daily by gastric gavage. All rats were fed for a total of 30 days. Rat body weight, fasting plasma glucose, and insulin level were measured before and after SD rat modeling and after gastric gavage.

[6] = system: Salmonella typhimurium TA102; experiment: Ames test, strain TA102; format: cell-based; details: Test 2
Experimental: as §1

[7] = system: standard tester strains TA97a, TA98, TA100, and TA102; experiment: Ames test, conclusion over the four tester strains; format: cell-based, Salmonella typhimurium; details: each of four strains, regardless of addition of S9, two duplicate tests
Experimental: as §1

[8] = 0.25 g/kg metformin daily by gavage, 30 days
[9] = positive control and the three TCM decoction dose groups, P<0.05
[10] = positive control group (0.25 g/kg metformin), baseline
[11] = positive control group (0.25 g/kg metformin), before treatment

O=P1(N(CCCl)CCCl)NCCCO1 (centres unmarked) [CP, cyclophosphamide]
Abnormality rate (mouse sperm): 6.49 ± 0.74 % | Total number of abnormal sperms (mouse sperm): 357 n | Type of abnormal sperms: Amorphous (mouse sperm): 157 | Type of abnormal sperms: Banana-like (mouse sperm): 8 | Type of abnormal sperms: Folded (mouse sperm): 6 | Type of abnormal sperms: Hookless (mouse sperm): 169 | Type of abnormal sperms: Large (mouse sperm): 7 | Type of abnormal sperms: Two-head (mouse sperm): 3 | Type of abnormal sperms: Two-tailed (mouse sperm): 7 | Frequency of micronucleated cells ([1]; female): 15.64 ± 5.16 ‰ | Number of micronucleated PCEs ([1]; female): 88 n | PCE/NCE ([1]; female): 1.02 ± 0.18 | Frequency of micronucleated cells ([1]; male): 17.57 ± 4.87 ‰ | Number of micronucleated PCEs ([1]; male): 78 n | PCE/NCE ([1]; male): 1.03 ± 0.16

CN(C)C(=N)N=C(N)N [Positive control, metformin]
number of revertant colonies ([2]; +S9, positive control): 1061 ± 84 | number of revertant colonies ([2]; −S9, positive control): 1027 ± 98 | number of revertant colonies ([3]; TA98, +S9, positive control): 1049 ± 94 | number of revertant colonies ([3]; TA98, −S9, positive control): 1091 ± 78 | number of revertant colonies ([4]; TA100, +S9, positive control): 1171 ± 91 | number of revertant colonies ([4]; TA100, −S9, positive control): 987 ± 117 | Body weight before administration [5, 8]: 435.4 ± 25.3 g | fasting plasma glucose: Blood glucose after administration [5, 8]: 6.65 ± 1.39 mmol/L | insulin level After administration [5, 8]: 44.13 ± 5.42 uIU/mL | body weight after administration compared with model control group [5, 9]: lower than that in the model control group | fasting plasma glucose after administration compared with after modeling [5, 9]: significantly lower than that after modeling | insulin levels after administration compared with after modeling [5, 9]: significantly lower than those after modeling | Body weight before modeling [5, 10]: 166.3 ± 10.8 g | fasting plasma glucose: Blood glucose before modeling [5, 10]: 6.02 ± 0.48 mmol/L | Body weight after modeling [5, 11]: 463.5 ± 17.3 g | fasting plasma glucose: Blood glucose after modeling [5, 11]: 20.15 ± 3.23 mmol/L | insulin level Before administration [5, 11]: 73.45 ± 9.45 uIU/mL | number of revertant colonies ([6]; TA102, +S9, positive control): 1085 ± 91 | number of revertant colonies ([6]; TA102, −S9, positive control): 973 ± 76 | number of revertant colonies compared with the solvent control [7]: more than twice that of the corresponding solvent control
